Test results as given in US10864159B2, “Method and composition for treating ocular hypertension and glaucoma” (Santen Pharmaceutical Co., Ltd., priority 2008, dated 2020).

Assay: Absorption of preservative-free tafluprost to low density polyethylene containers, remaining concentration by HPLC
Format: physicochemical
Conditions: LDPE unit dose container, 20 weeks at 5° C., 25° C. and 40° C.
Procedure: The effect of nonionic surfactant on the absorption of preservative-free tafluprost to low density polyethylene containers was studied for 20 weeks at 5° C., 25° C. and 40° C. Three different polysorbate 80 (Tween 80) concentrations, namely 0.05%, 0.075% and 0.1% were used. The composition of the preservative-free aqueous tafluprost formulation except polysorbate 80 was 0.0015% tafluprost, 2.25% glycerol, 0.2% sodium dihydrogen phosphate dihydrate, 0.05% disodium edetate and sodium hydroxide and/or hydrochloric acid to adjust the pH to 5.0-6.7. 0.3 ml of the composition prepared above was filled in the body part of the unit dose container (LDPE) and sealed by heating with the upper part of the container (LDPE). The inner volume of the unit dose container was ca. 1 ml. The container was packaged into paper coated aluminium-polyethylene foil and stored in refrigerator or incubator. The remaining concentration of tafluprost was measured by HPLC.

absorption of tafluprost to polyethylene (polysorbate 80 0.05 to 0.1%): inhibits the absorption of tafluprost
Structure (SMILES): CC(C)OC(=O)CCC/C=C\C[C@@H]1[C@@H](/C=C/C(F)(F)COc2ccccc2)[C@H](O)C[C@@H]1O [tafluprost]
absorption of tafluprost to polyethylene (polysorbate 80 0.075 to 0.1%): good inhibition effect of absorption of tafluprost
